The supplement of paper PMC9763283
Where a name gives a salt, the structure may show the parent alone.

Experiments:
Test in all cases: area under growth-rate inhibition curve (AUC GRI) (dimensionless (GR-based AUC)); higher = less growth inhibition
Settings in all cases: exposure time: 72 h; concentrations: 0.1, 1, 10 uM
BT474-LTR = tested on: BT474-LTR
Procedure, shortened: (§1)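 Six breast cancer cell line models were used: two triple-negative lines, plus parental HER2+ lines and HER2+ lines resistant to a two-drug combination, each plated at an optimised log-phase density and treated with compound at 0.1, 1 or 10 µM for 72 h. After fixation in 4% paraformaldehyde, nuclei were stained with Hoechst 33342 or DAPI, imaged and counted. Growth was corrected using Day 0 plates, untreated Day 3 plates and DMSO controls, with 2 biological replicates. These corrected counts gave the area under the growth-rate inhibition curve.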

BT474-P = tested on: BT474-P
Procedure, shortened: as §1

MDA-MB-231 = tested on: MDA-MB-231
Procedure, shortened: as §1

MDA-MB-468 = tested on: MDA-MB-468
Procedure, shortened: as §1

SKBR3-LTR = tested on: SKBR3-LTR
Procedure, shortened: as §1

SKBR3-P = tested on: SKBR3-P
Procedure, shortened: as §1

Structure (SMILES) | area under growth-rate inhibition curve (BT474-LTR) | area under growth-rate inhibition curve (BT474-P) | area under growth-rate inhibition curve (MDA-MB-231) | area under growth-rate inhibition curve (MDA-MB-468) | area under growth-rate inhibition curve (SKBR3-LTR) | area under growth-rate inhibition curve (SKBR3-P)
OC[C@H](O)CN1CCN(c2ccccc2)CC1 [Levodropropizine] | 0.995 | 1.01 | 0.999 | 1.03 | 0.975 | 1.02
CC[C@@H](CO)NC(=O)[C@@H]1C=C2c3cccc4[nH]cc(c34)C[C@H]2N(C)C1.O=C(O)/C=C\C(=O)O [Methylergometrine maleate] | 1.05 | 1.01 | 1.03 | 1.06 | 1.05 | 1.04
Cl.NCc1cnc(S)n1C1CCc2c(F)cc(F)cc2C1 (stereo not drawn) [Nepicastat (SYN-117) HCl] | 1.08 | 1.03 | 1.01 | 1 | 1.07 | 1.02
CN1CCCC1Cc1c[nH]c2ccc(CCS(=O)(=O)c3ccccc3)cc12.[Br-].[H+] (stereo not given) [Eletriptan HBr] | 1.14 | 1.03 | 1.04 | 1.02 | 1.03 | 1.01
CCc1cc2c(cc1CC)CC(NC[C@H](O)c1ccc(O)c3[nH]c(=O)ccc13)C2.O=C(O)/C=C\C(=O)O [Indacaterol Maleate] | 1 | 0.978 | 0.903 | 0.93 | 1.01 | 0.955
CNC[C@H](O)c1ccc(O)c(O)c1.O=C(O)[C@H](O)[C@@H](O)C(=O)O [Epinephrine Bitartrate] | 1.06 | 1.03 | 0.946 | 1.02 | 1.1 | 1.01
CCC(=O)NCC[C@@H]1CCc2ccc3c(c21)CCO3 [Ramelteon] | 1.1 | 1.05 | 1.03 | 1.05 | 1.06 | 1.03
OCCN1CCN(CCCN2c3ccccc3Sc3ccc(C(F)(F)F)cc32)CC1.[Cl-].[Cl-].[H+].[H+] [Fluphenazine (dihydrochloride)] | 1.06 | 0.966 | 0.991 | 0.953 | 1.05 | 0.975
COc1cc2c(cc1OC)CC(=O)N(CCCN(C)CC1Cc3cc(OC)c(OC)cc31)CC2.Cl (stereo not given) [Ivabradine HCl] | 1.04 | 1.02 | 1.01 | 1.01 | 1.07 | 1.03
CC(=O)[C@H]1CC[C@H]2[C@@H]3CC=C4C[C@@H](O)CC[C@]4(C)[C@H]3CC[C@]12C [Pregnenolone] | 1.09 | 1.02 | 1.03 | 1.02 | 1.05 | 0.999
CCOC(=O)C1(c2ccccc2)CCN(C)CC1 [meperidine] | 1.04 | 0.992 | 1.04 | 1.04 | 1.06 | 1.02
O=C(O)C=CC(=O)O.OCCOCCN1CCN(C2=Nc3ccccc3Sc3ccccc32)CC1.OCCOCCN1CCN(C2=Nc3ccccc3Sc3ccccc32)CC1 [Quetiapine Fumarate] | 1.07 | 1.03 | 1.02 | 1.02 | 1.07 | 1.04
CN(C)CCC(c1ccc(Cl)cc1)c1ccccn1.O=C(O)/C=C\C(=O)O (stereo not given) [Chlorpheniramine Maleate] | 1.12 | 1.05 | 1.03 | 1.04 | 1.03 | 1.01
Nc1cccc2c1CN(C1CCC(=O)NC1=O)C2=O (stereo not given) [lenalidomide] | 1.03 | 1.01 | 1.04 | 1.04 | 1.06 | 1.02
CN(C)CCc1c[nH]c2ccc(CS(=O)(=O)N3CCCC3)cc12.O=C(O)CC(O)C(=O)O [Almotriptan Malate] | 1.09 | 1.02 | 1.02 | 1.04 | 1.06 | 1.02
Cl.NC(CO)C(=O)NNCc1ccc(O)c(O)c1O (stereo not given) [Benserazide HCl] | 1.1 | 1.05 | 1.05 | 1.06 | 1.05 | 1.03
Clc1ccc2c(c1)CCc1cccnc1C2=C1CCNCC1 [Desloratadine] | 1.07 | 0.984 | 1 | 0.988 | 1.03 | 0.998
CC(COc1ccccc1)N(CCCl)Cc1ccccc1.[Cl-].[H+] (stereo not given) [Phenoxybenzamine HCl] | 0.978 | 0.997 | 0.984 | 1 | 1.01 | 1.01
CC(C)NCC(O)c1ccc(O)c(O)c1.[Cl-].[H+] (stereo not given) [Isoprenaline HCl] | 1.08 | 1.04 | 1.05 | 1.04 | 1.03 | 0.995
CCCc1c2oc(C(=O)O)cc(=O)c2cc2c(=O)cc(C(=O)O)n(CC)c12 [Nedocromil] | 1.04 | 1.02 | 1.03 | 1.05 | 1.05 | 1.02
Cl.NC12CC3CC(CC(C3)C1)C2 [Amantadine HCl] | 1.08 | 1.05 | 1.03 | 1.02 | 1.05 | 1.05
CN1CC(C(=O)NC2(C)OC3(O)C4CCCN4C(=O)C(Cc4ccccc4)N3C2=O)C=C2c3cccc4[nH]cc(c34)CC21 (stereo not given) [ergotamine] | 1.03 | 1.01 | 1.03 | 1 | 1.06 | 1.02
CC(NC(C)(C)C)C(=O)c1cccc(Cl)c1 (stereo not given) [Amfebutamone HCl] | 1.03 | 1.02 | 0.987 | 1.01 | 1.03 | 1.01
OCCN(CCO)c1nc(N2CCCCC2)c2nc(N(CCO)CCO)nc(N3CCCCC3)c2n1 [Dipyridamole] | 1.12 | 1.04 | 0.97 | 0.962 | 1.05 | 1.05
CCN(CC)CCCCN1c2ccccc2Oc2ccc(Cl)cc21.Cl [10-DEBC hydrochlorid] | 0.995 | 1.04 | 1.04 | 1.06 | 1.05 | 1.04
